Measured values reported in patent US8853193B2, “Thienopyrimidines containing a substituted alkyl group for pharmaceutical compositions” (Boehringer Ingelheim International GmbH, priority 2010, dated 2014).
pIC50: −log10 of the molar value. Counter-ions that a name gives are not always drawn.

Target: human Mnk2a (Homo sapiens (Human), UniProt Q9HBH9)
Assay: Mnk2a in vitro kinase assay (indirect competitive fluorescence polarization)
Assay type: biochemical
Conditions: pre-activated GST-Mnk2a 2.5 nM, 20 μM ATP, 30 μM substrate peptide; read-out: MNK2 IC50
Method: Inhibitory potency of compounds against Mnk1, Mnk2a and other kinases was assessed with assays based on a format known to those skilled in the art as the indirect (competitive) fluorescence polarization. The assay detection system comprises a small fluorophore-labeled phospho-peptide (termed ligand) bound to a phospho-specific antibody. The product generated by the kinase reaction competes with the ligand for antibody binding. Based on the larger molecular volume of the bound ligand, which results in a lower rotation rate in solution, its emitted light has a higher degree of polarization than the one from the free ligand.
In brief, the open reading frames of human Mnk1 and Mnk2a were amplified from cDNA using the forward/reverse primer pairs
(utilized restriction sites underlined), respectively, and cloned into the BamHI and SalI sites of the vector pGEX-4T1 (Amersham, Sweden, cat. no. 27-4580-01). These constructs allow prokaryotic expression of Mnk1 or Mnk2a as fusion protein with a N-terminal glutathione S-transferase (GST) tag, referred to as GST-Mnk1 or GST-Mnk2a. The following expression and purification procedure was identical for GST-Mnk1 and GST-Mnk2a, referring in general to GST-Mnk, when not distinguishing between the two isoforms. Expression of GST-Mnk was in E. coli BL21 (Merck Biosciences, Germany, cat. no. 69449). Cells were grown in LB-Bouillon (Merck, Germany, cat. no. 1.10285) supplemented with 100 μg/ml ampicillin (Sigma, Germany, cat. no. A9518) at 37° C. […] Cells harvested by centrifugation were resuspended in 10 ml lysis buffer (50 mM tris(hydroxymethyl)aminomethane hydrochloride (Tris/HCl, Sigma, Germany, cat. no. T5941) pH 7.5, 300 mM sodium chloride (NaCl, Sigma, Germany, cat. no. S7653), 5% (w/v) glycerol (Sigma, Germany, cat. no. G5516), 3 mM DTT dithiotreitol (DTT, Sigma, Germany, cat. no. D9779)) per gram wet weight cell pellet. Lysates were prepared by disruption of cells with a sonifier and subsequent clearing by centrifugation at 38000 g for 45 min at 4° C.
The lysate was applied to a GSTPrep FF 16/10 column (Amersham, Sweden, cat. no. 17-5234-01) equilibrated with lysis buffer. Removal of unbound material was with 3 column volumes (CV) lysis buffer. Elution was with 2 CV of elution buffer (50 mM Tris/HCl pH 7.5, 300 mM NaCl, 5% (w/v) glycerol, 20 mM glutathione (Sigma, Germany, cat. no. G4251)). Peak fractions were pooled and the protein transferred into storage buffer (50 mM Tris/HCl pH 7.5, 200 mM NaCl, 0.1 mM ethylene glycol[…] bis(2-aminoethylether)-N,N,N′,N′-tetraacetic acid (EGTA, Aldrich, Germany, cat. no. 23, 453-2), 1 mM DTT, 10% (w/v) glycerol, 0.5 M sucrose (Sigma, Germany, cat. no. S0389) by gel filtration on a PD10 desalting column (Amersham, Sweden, cat. no. 17-0851-01). Aliquots were shock frozen in liquid nitrogen and stored at −80° C.
Activation of Mnk1 and Mnk2a was at a concentration of 2.5 μM of either purified GST-Mnk1 or GST-Mnk2a by incubation with 150 nM pre-activated NHis-ERK2 (see ERK2 assay for preparation) and 50 μM adenosine triphosphate (ATP, Sigma, cat. no. A2699) in a buffer comprising 20 mM N-(2-hydroxyethyl)piperazine-N′-(2-ethanesulfonic acid) (HEPES, Fluka, Germany, cat. no 54459)/potassium hydroxide (KOH, Roth, Germany, cat. no 6751.1) pH 7.4, 10 mM magnesium chloride (MgCl2, Sigma, Germany, cat. no. M2670), 0.25 mM DTT, 0.05% (w/v) polyoxyethylene 20 stearylether (Brij 78, Sigma, Germany, cat. no. P4019) (HMDB buffer) for 45 min at 30° C. After the incubation, the preparation was aliquoted into single-use samples, shock frozen in liquid nitrogen, stored at −80° C. and utilized for Mnk1 or Mnk2a kinase assays as detailed below.
The serine residue phosphorylated by Mnk kinases is underlined.

Sequence of human Mnk2a (Q9HBH9 whole entry): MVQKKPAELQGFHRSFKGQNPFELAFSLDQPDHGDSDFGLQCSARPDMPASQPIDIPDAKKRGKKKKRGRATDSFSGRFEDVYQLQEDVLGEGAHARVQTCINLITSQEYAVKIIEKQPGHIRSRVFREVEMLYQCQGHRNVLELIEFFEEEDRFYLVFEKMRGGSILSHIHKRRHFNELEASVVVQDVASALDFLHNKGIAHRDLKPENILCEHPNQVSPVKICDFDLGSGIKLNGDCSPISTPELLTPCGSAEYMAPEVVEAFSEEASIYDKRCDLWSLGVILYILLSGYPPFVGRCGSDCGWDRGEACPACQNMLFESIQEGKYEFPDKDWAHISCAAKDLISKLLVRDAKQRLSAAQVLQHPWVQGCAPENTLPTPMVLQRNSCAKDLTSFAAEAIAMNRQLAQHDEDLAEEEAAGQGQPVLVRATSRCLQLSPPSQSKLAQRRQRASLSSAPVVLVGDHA

| SMILES | pIC50 |
| --- | --- |
| COC(=O)c1sc2ncnc(Nc3ccc(F)cc3OC(C)CCNC(C)=O)c2c1C (stereo not shown) [Compound 13-2, Methyl 4-(2-(4-acetamidobutan-2-yloxy)-4-fluorophenyl-amino)-5-methyl-thieno[2,3-d]pyrimidine-6-carboxylate] | 6.33 |
| COC(=O)c1sc2ncnc(Nc3ccc(F)cc3OC(C)CCNC(=O)C(C)C)c2c1C (stereo not shown) [Compound 13-3, Methyl 4-(4-fluoro-2-(4-isobutyramido-butan-2-yloxy)-phenylamino)-5-methylthieno[2,3-d]pyrimidine-6-carboxylate] | 6.17 |
| CCCCNC(=O)NCCC(C)Oc1cc(F)ccc1Nc1ncnc2sc(C(=O)OC)c(C)c12 (stereo not shown) [Compound 13-4, Methyl 4-(2-(4-(3-butylureido)-butan-2-yloxy)-4-fluorophenyl-amino)-5-methylthieno[2,3-d]pyrimidine-6-carboxylate] | 6.05 |
| COC(=O)c1sc2ncnc(Nc3ccc(F)cc3OC(C)CCN(C)C)c2c1C (stereo not shown) [Compound 14] | 5.99 |
| COC(=O)c1sc2ncnc(Nc3cccnc3OC(C)CCN)c2c1C (stereo not shown) [Compound 15-2, Methyl 4-(2-((4-aminobutan-2yloxy)pyridin-3ylamino)-5-methyl-thieno[2,3-d]pyrimidine-6-carboxylate trifluoroacetate] | 6.76 |
| Cc1c(C(=O)NCCCN(C)C)sc2ncnc(Nc3cccnc3OC(C)CCN)c12 (stereo not shown) [Compound 16-3, 4-(2-(4-Aminobutan-2yloxy)pyridin-3-ylamino)-N-(3-(dimethylamino)propyl)-5-methylthieno[2,3-d]pyrimidine-6-carboxamide bis(2,2,2-trifluoroacetate)] | 7.13 |
| Cc1c(C(N)=O)sc2ncnc(Nc3cccnc3OC(C)CCN)c12 (stereo not shown) [Compound 16-4] | 7.36 |
| COC(=O)c1sc2ncnc(Nc3ccc(F)cc3OC(CN)CN)c2c1C [Compound 18-2, Methyl 4-(2-(1,3-diaminopropan-2-yloxy)-4-fluorophenylamino)-5-methylthieno[2,3-d]pyrimidine-6-carboxylate bis(trifluoroacetate)] | 6.16 |
| COC(=O)c1sc2ncnc(Nc3ccc(F)cc3OC(CN)CNC(C)=O)c2c1C (stereo not shown) [Compound 19-1, Methyl 4-(2-(1-acetamido-3-aminopropan-2-yloxy)-4-fluorophenylamino)-5-methylthieno[2,3-d]pyrimidine-6-carboxylate trifluoroacetate] | 5.82 |
| COC(=O)c1sc2ncnc(Nc3ccc(F)cc3OC(CN)CNS(C)(=O)=O)c2c1C (stereo not shown) [Compound 19-2, Methyl 4-(2-(1-amino-3-(methyl-sulfonamido)-propan-2-yloxy)-4-fluoro-phenylamino)-5-methylthieno[2,3-d]pyrimidine-6-carboxylate trifluoroacetate] | 5.93 |
| COC(=O)c1sc2ncnc(Nc3ccc(F)cc3OC(C)CC(C)(C)O)c2c1C (stereo not shown) [Compound 20-1, Methyl 4-(4-fluoro-2-(4-hydroxy-4-methylpentan-2-yloxy)phenylamino)-5-methyl-thieno[2,3-d]pyrimidine-6-carboxylate] | 6.85 |
| Cc1c(C(=O)O)sc2ncnc(Nc3ccc(F)cc3OC(C)CC(C)(C)O)c12 (stereo not shown) [Compound 20-2, 4-(4-fluoro-2-(4-hydroxy-4-methylpentan-2-yloxy)phenylamino)-5-methyl-thieno[2,3-d]pyrimidine-6-carboxylic acid] | 7.60 |
| Cc1c(C(=O)NCCCN(C)C)sc2ncnc(Nc3ccc(F)cc3OC(C)CC(C)(C)O)c12 (stereo not shown) [Compound 20-3, N-(3-(Dimethylamino)propyl)-4-(4-fluoro-2-(4-hydroxy-4-methylpentan-2-yloxy)phenylamino)-5-methyl-thieno[2,3-d]pyrimidine-6-carboxamide trifluoroacetate] | 7.23 |
| Cc1c(C(=O)O)sc2ncnc(Nc3cccnc3OC(C)C(F)(F)F)c12 (stereo not shown) [Compound 21-2, 5-Methyl-4-(2-(1,1,1-trifluoropropan-2-yloxy)pyridin-3-ylamino)thieno[2,3-d]pyrimidine-6-carboxylic acid] | 7.82 |
| Cc1c(C(N)=O)sc2ncnc(Nc3cccnc3OC(C)C(F)(F)F)c12 (stereo not shown) [Compound 21-3, 5-Methyl-4-(2-(1,1,1-trifluoropropan-2-yloxy)pyridin-3-ylamino)thieno[2,3-d]pyrimidine-6-carboxamide] | 7.96 |
| Cc1c(C(=O)NC2CCN(C)CC2)sc2ncnc(Nc3cccnc3OC(C)C(F)(F)F)c12 (stereo not shown) [Compound 21-4, 5-methyl-N-(1-methylpiperidin-4-yl)-4-(2-(1,1,1-trifluoropropan-2-yloxy)pyridin-3-ylamino)thieno[2,3-d]pyrrimidine-6-carboxamide] | 7.27 |
| Cc1c(C(=O)NCCCN(C)C)sc2ncnc(Nc3cccnc3OC(C)C(F)(F)F)c12 (stereo not shown) [Compound 21-5, N-(3-(dimethyl-amino)propyl)-5-methyl-4-(2-(1,1,1-trifluoro-propan-2-yloxy)-pyridin-3-yl-amino)thieno[2,3-d]pyrimidine-6-carboxamide] | 7.38 |
| CNC(=O)c1sc2ncnc(Nc3cccnc3OC(C)C(F)(F)F)c2c1C (stereo not shown) [Compound 21-6, N-Methyl-5-methyl-4-(2-(1,1,1-trifluoro-propan-2-yloxy)-pyridin-3-yl-amino)thieno[2,3-d]pyrimidine-6-N-methylcarboxamide] | 7.92 |
| Cc1c(C(=O)NCC#CCN(C)C)sc2ncnc(Nc3cccnc3OC(C)C(F)(F)F)c12 (stereo not shown) [Compound 21-7, 5-Methyl-4-[2-(2,2,2-trifluoro-1-methyl-ethoxy)-pyridin-3-ylamino]-thieno[2,3-d]pyrimidine-6-carboxylic acid (4-dimethylamino-but-2-ynyl)-amide] | 7.62 |
| Cc1c(C(=O)NCCO)sc2ncnc(Nc3cccnc3OC(C)C(F)(F)F)c12 (stereo not shown) [Compound 21-8, 5-Methyl-4-[2-(2,2,2-trifluoro-1-methyl-ethoxy)-pyridin-3-ylamino]-thieno[2,3-d]pyrimidine-6-carboxylic acid (4-hydroxy-ethyl)-amide] | 7.70 |
| CCOCC(COCC)Oc1cc(F)ccc1Nc1ncnc2sc(C(N)=O)c(C)c12 [Compound 22-3, 4-(2-(1,3-Diethoxypropan-2-yloxy)-4-fluorophenylamino)-5-methyl-thieno[2,3-d]pyrimidine-6-carboxamide] | 6.53 |
| COC(=O)c1sc2ncnc(Nc3ccc(F)cc3OC(CF)CF)c2c1C [Compound 23-1, Methyl 4-(2-(1,3-difluoropropan-2-yloxy)-4-fluorophenylamino)-5-methyl-thieno[2,3-d]pyrimidine-6-carboxylate] | 7.11 |
| Cc1c(C(=O)O)sc2ncnc(Nc3ccc(F)cc3OC(CF)CF)c12 [Compound 23-2, 4-(2-(1,3-Difluoropropan-2-yloxy)-4-fluorophenylamino)-5-methyl-thieno[2,3-d]pyrimidine-6-carboxylic acid] | 8.22 |
| Cc1c(C(N)=O)sc2ncnc(Nc3ccc(F)cc3OC(CF)CF)c12 [Compound 23-3, 4-(2-(1,3-Difluoropropan-2-yloxy)-4-fluorophenylamino)-5-methyl-thieno[2,3-d]pyrimidine-6-carboxamide] | 8.40 |
| CNC(=O)c1sc2ncnc(Nc3ccc(F)cc3OC(CF)CF)c2c1C [Compound 23-4, 4-(2-(1,3-difluoro-propan-2-yloxy)-4-fluorophenylamino)-N,5-dimethylthieno [2,3d]pyrimidine-6-carboxamide] | 8.10 |
